Reference: patent publication US20190365681A1, “TREATMENT OF CANCER WITH COMBINATIONS OF RXR AGONISTS AND THYROID HORMONES” (Io Therapeutics, Inc., priority 2015, published 2019)
pIC50: −log10 of the molar value. Entries after “also recorded” stand apart in the source; their conditions may differ. Where two headings read alike, the source gives them in different places.

Tests used:
[1] = target: T1, FXR/RXR (Homo sapiens, UniProt P19793); assay: Permissive heterodimer transactivation assay, CV-1 cells, 3x(IBABP/IRI)-tk-Luc; type: cell-based; conditions: 20 hr; relative to GW4064
T1 construct: expressed in transfected cells; host or cells: CV-1
T1 sequence (Q96RI1 whole entry partner): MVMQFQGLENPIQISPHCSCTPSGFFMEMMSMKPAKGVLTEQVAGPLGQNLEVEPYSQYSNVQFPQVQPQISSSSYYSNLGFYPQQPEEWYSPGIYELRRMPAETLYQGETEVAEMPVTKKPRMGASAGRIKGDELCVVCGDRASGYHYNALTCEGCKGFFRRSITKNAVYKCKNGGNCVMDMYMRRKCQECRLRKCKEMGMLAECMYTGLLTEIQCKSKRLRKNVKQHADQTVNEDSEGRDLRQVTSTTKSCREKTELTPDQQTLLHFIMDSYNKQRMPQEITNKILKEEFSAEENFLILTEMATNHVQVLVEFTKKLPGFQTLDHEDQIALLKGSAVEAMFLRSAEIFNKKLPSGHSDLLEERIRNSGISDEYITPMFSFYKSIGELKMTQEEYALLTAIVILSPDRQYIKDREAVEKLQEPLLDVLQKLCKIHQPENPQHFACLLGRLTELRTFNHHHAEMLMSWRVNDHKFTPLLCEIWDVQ
T1 sequence (P19793 whole entry): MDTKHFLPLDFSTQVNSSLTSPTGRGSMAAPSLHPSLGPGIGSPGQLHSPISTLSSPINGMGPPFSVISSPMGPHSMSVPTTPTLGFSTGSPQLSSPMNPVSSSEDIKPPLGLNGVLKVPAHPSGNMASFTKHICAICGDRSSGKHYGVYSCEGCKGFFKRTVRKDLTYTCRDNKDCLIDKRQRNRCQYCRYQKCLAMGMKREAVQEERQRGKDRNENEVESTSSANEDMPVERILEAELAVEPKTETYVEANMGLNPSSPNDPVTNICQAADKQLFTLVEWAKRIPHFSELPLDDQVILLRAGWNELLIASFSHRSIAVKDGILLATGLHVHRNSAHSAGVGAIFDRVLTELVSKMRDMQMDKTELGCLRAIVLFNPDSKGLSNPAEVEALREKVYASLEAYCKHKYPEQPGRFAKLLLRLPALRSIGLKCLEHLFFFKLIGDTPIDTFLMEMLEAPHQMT
From the text: (§1) For PPARγ: CV-1 cells were transfected with 3×(rAOX/DR1)-tk-Luc reporter gene and an expression vector for PPARγ. For FXR:CV-1 cells were transfected with 3×(IBABP/IRI)-tk-Luc reporter gene and vectors for FXR and RXRα. For LXR:CV-1 cells were transfected with 3×(PLTP/LXRE)-tk-Luc reporter gene with vectors for LXRα or LXRβ. For Nurr1: COS7 cells were transfected with 3×NBRE-tk-luc reporter gene and full length Nurr-1 with or without full-length RXRα plasmid. […] Luciferase data were normalized to co-transfected β-gal activity. Luciferase activity was expressed as percent of maximal activity obtained using specific agonists. Rosiglitazone (PPARγ), GW4064 (FXR), T0901317 (LXR).

[2] = test system: SW48; assay: In vitro growth inhibition, cell counting; type: cell-based; conditions: SW48, Colon, maximal inhibition at 1 μM
[3] = test system: refractory malignancies (progressive, solid tumors); assay: Phase I/II study of IRX4204 in refractory malignancies; type: in vivo, Humans
From the text: Data was collected for 18 patients with progressive, solid tumors.

[4] = test system: LXRβ/RXR; assay: Permissive heterodimer transactivation assay, CV-1 cells, 3x(PLTP/LXRE)-tk-Luc; type: cell-based; conditions: 20 hr; relative to T0901317
From the text: as §1

[5] = test system: LXRα/RXR; assay: as above; type: cell-based; conditions: 20 hr; relative to T0901317
From the text: as §1

[6] = test system: HuT 78; assay: In vitro growth inhibition, ATP assay ([…]-GLO); type: cell-based
Procedure: (§2) The inhibition of growth was tested in a variety of cancer cell lines.
(§3) All cell lines were obtained from American Type Culture Collection (ATCC, Manassas, Va.) and culture media and supplements were supplied by ATCC and Invitrogen (Carlsbad, Calif.). The ATP assay was performed using […]-GLO Luminescent Cell Viability Assay Kit from Promega (Madison, Wis.) which allows ATP to be roughly quantified based on the […] emitted by the cells. Luminescence was recorded using VICTOR-22 1420 (Perkin Elmer, Waltham, Mass.).
(§4) Efficacy is the maximal inhibition of cell growth at the maximal concentration used in the studies. ND means the results were not determined.

[7] = test system: T47D; assay: In vitro growth inhibition, ATP assay ([…]-GLO); type: cell-based
Procedure: as §2, §3, §4

[8] = test system: SW403; assay: In vitro growth inhibition, ATP assay ([…]-GLO); type: cell-based
Procedure: as §2, §3, §4

[9] = test system: SK-BR-3; assay: In vitro growth inhibition, ATP assay ([…]-GLO); type: cell-based
Procedure: as §2, §3, §4

[10] = test system: ME-180; assay: In vitro growth inhibition, ATP assay ([…]-GLO); type: cell-based
Procedure: as §2, §3, §4

[11] = test system: SiHa; assay: In vitro growth inhibition, ATP assay ([…]-GLO); type: cell-based
Procedure: as §2, §3, §4

[12] = test system: HT-3; assay: In vitro growth inhibition, ATP assay ([…]-GLO); type: cell-based
Procedure: as §2, §3, §4

[13] = test system: U937; assay: In vitro growth inhibition, ATP assay ([…]-GLO); type: cell-based
Procedure: as §2, §3, §4

[14] = test system: MCF-7; assay: In vitro growth inhibition, ATP assay ([…]-GLO); type: cell-based
Procedure: as §2, §3, §4

[15] = test system: A-427; assay: In vitro growth inhibition, ATP assay ([…]-GLO); type: cell-based
Procedure: as §2, §3, §4

[16] = target: RXRα (Homo sapiens, UniProt P19793); conditions: CV-1 cells, 20 hours, luciferase
Chain of RXRα (P19793 whole entry, the tested form may be a part): as the sequence (P19793 whole entry) above
Procedure: To determine whether a RXR agonist can mediate its effects via RXRα receptor homodimers, RXRβ receptor homodimers, RXRγ receptor homodimers, or any combination thereof, or the corresponding RAR/RXR heterodimers, receptor-mediated transactivation assays were performed. For transactivation assays assessing RXR homodimer signaling, CV-1 cells were transfected with 1) an expression construct including a full length RXRα, RXRβ, or RXRγ; and 2) a rCRBPII/RXRE-tk-Luc reporter construct that included RXR homodimer-specific RXRE/DR1 responsive element linked to a luciferase gene. For transactivation assays assessing RAR/RXR heterodimer signaling, CV-1 cells were transfected with 1) an expression construct comprising a fusion protein including an estrogen receptor (ER) DNA binding domain linked to the ligand binding domain of RARα, RARβ, or RARγ and 2) a ERE-tk-Luc reporter construct that included an estrogen receptor responsive element linked to a luciferase gene. […] Data are mean values±SE from five independent experiments.

[17] = test system: HL-60; assay: In vitro growth inhibition, [3H] thymidine incorporation; type: cell-based
Procedure: as §2, §3
(§5) The thymidine incorporation assay allows for specific detection of [^3H]-labeled thymidine (Perkin-Elmer) incorporated into newly synthesized DNA. Labeled cells were collected and their DNA was harvested on to a fiberglass filter using MLR24 Cell Harvester (Brandel, Geithersburg, Md.). The amount of incorporated [^3H] thymidine was determined by scintillation counting using Trilux-1450 Microbeta Counter (Perkin-Elmer).
as §4

[18] = test system: H-82; assay: as above; type: cell-based
Procedure: as §2, §3, §5, §4

[19] = target: Nurr1/RXR (Homo sapiens, UniProt P19793); assay: Permissive heterodimer transactivation assay, COS7 cells, 3xNBRE-tk-luc; type: cell-based; conditions: Nurr-1 with RXRα
Chain of Nurr1/RXR (P43354 whole entry partner): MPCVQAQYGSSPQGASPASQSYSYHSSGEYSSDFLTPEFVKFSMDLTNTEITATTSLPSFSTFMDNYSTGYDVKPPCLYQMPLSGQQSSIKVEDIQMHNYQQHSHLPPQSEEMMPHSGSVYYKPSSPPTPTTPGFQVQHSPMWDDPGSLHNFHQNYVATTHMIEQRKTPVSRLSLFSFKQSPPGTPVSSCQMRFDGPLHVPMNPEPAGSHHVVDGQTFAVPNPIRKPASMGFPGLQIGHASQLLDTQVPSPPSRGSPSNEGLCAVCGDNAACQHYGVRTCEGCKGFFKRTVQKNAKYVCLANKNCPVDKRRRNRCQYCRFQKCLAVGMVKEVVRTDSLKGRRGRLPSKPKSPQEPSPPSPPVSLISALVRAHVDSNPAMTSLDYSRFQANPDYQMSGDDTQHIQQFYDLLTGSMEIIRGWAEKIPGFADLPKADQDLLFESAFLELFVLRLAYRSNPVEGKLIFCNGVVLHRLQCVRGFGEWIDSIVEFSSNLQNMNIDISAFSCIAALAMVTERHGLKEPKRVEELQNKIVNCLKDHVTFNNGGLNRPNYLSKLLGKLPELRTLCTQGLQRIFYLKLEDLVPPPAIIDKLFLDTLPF
Chain of Nurr1/RXR (P19793 whole entry): as the sequence (P19793 whole entry) above
From the text: as §1

[20] = target: T2, RXRγ (Homo sapiens, UniProt P48443); assay: RXR homodimer transactivation assay (rCRBPII/RXRE-tk-Luc reporter) in CV-1 cells; type: cell-based
T2 construct: an expression construct including a full length RXRα, RXRβ, or RXRγ; expressed in transfected cells; host or cells: CV-1
T2 sequence (P48443 whole entry): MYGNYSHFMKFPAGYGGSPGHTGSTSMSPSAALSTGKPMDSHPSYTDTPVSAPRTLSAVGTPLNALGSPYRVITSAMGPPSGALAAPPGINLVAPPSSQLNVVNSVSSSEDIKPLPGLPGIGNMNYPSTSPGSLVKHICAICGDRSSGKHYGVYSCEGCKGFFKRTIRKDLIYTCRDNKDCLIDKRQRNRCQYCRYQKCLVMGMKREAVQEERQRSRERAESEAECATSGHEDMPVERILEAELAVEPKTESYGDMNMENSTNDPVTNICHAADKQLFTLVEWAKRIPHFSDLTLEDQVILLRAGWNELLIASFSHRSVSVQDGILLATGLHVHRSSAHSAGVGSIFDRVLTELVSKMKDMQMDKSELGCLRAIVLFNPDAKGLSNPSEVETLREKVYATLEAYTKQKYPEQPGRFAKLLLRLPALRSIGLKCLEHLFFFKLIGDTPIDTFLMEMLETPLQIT
Procedure: To determine whether a RXR agonist can mediate its effects via RXRα receptor homodimers, RXRβ receptor homodimers, RXRγ receptor homodimers, or any combination thereof, or the corresponding RAR/RXR heterodimers, receptor-mediated transactivation assays were performed. For transactivation assays assessing RXR homodimer signaling, CV-1 cells were transfected with 1) an expression construct including a full length RXRα, RXRβ, or RXRγ; and 2) a rCRBPII/RXRE-tk-Luc reporter construct that included RXR homodimer-specific RXRE/DR1 responsive element linked to a luciferase gene. For transactivation assays assessing RAR/RXR heterodimer signaling, CV-1 cells were transfected with 1) an expression construct comprising a fusion protein including an estrogen receptor (ER) DNA binding domain linked to the ligand binding domain of RARα, RARβ, or RARγ and 2) a ERE-tk-Luc reporter construct that included an estrogen receptor responsive element linked to a luciferase gene. The ER-RAR fusion proteins provided an accurate readout of only the transfected ER-RAR. […] Data are mean values±SE from five independent experiments.

[21] = test system: T47D; assay: In vitro growth inhibition, soft-agar; type: cell-based
Procedure: as §2, §3
(§6) The soft-agar coupled thymidine incorporation assay is used to determine the ability of cells to form colonies through invasion into agar matrix. A bottom feeder layer of cells was composed of 0.6% NUSIEVE GTG agarose (Cambrex, East Rutherford, N.J.), D-MEM with low glucose, 2 mM L-glutamine, and 15% charcoal/dextran-treated FBS. Test cells were seeded in the top soft-agar layer containing 0.3% NUSIEVE GTG agarose, D-MEM (low glucose), 2 mM L-glutamine, and 15% charcoal/dextran-treated FBS at a density of 10,000-20,000 cells per well. Test cells were labeled with [^3H] thymidine at 50 nM. Labeled cells were collected and counted as described above.
(§7) For the soft-agar colony formation assay, cells were cultured in 6-well plates containing two agar layers with growth medium. The bottom feeder layer contained 0.5% DIFCO Noble Agar (Becton Dickinson & Co., East Rutherford, N.J.), D-MEM with low glucose and 2 mM L-glutamine, and 15% charcoal/dextran-treated FBS. Test cells were seeded in the top soft-agar layer containing 0.3% agarose, D-MEM (low glucose), 2 mM L-glutamine, and 15% charcoal/dextran-treated FBS at a density of 10,000 cells per well. After treatment with drugs, cell colonies were counted under a light microscope.
as §4

[22] = test system: H446; assay: In vitro growth inhibition, soft-agar; type: cell-based
Procedure: as §2, §3, §6, §7, §4

[23] = cited from earlier work
[24] = Homo sapiens, Breast ER-positive

CC(/C=C/[C@@H]1C[C@]1(C)c1ccc2c(c1)C(C)(C)CCC2(C)C)=C\C(=O)O [IRX4204, 3,7-dimethyl-6(S),7(S)-methano,7-[1,1,4,4-tetramethyl-1,2,3,4-tetrahydronaphth-7-yl]2(E),4(E) heptadienoic acid]
activation of FXR/RXR heterodimer [1]: not to transactivate; also recorded: does not activate | Efficacy (Conc.) [2]: 60% | patients who did not exhibit tumor progression for at least four months ([3]; 18 patients with progressive, solid tumors, 9 patients): 50% | adverse events recorded ([3]; patients, once-daily oral 3, 6, 12, 24 mg/m^2, minimum four weeks): triglyceride elevation and hypothyroidism | serious adverse events related to IRX4204 ([3]; patients, once-daily oral 3, 6, 12, 24 mg/m^2, minimum four weeks, 18 patients): no serious adverse events considered possibly or probably related to IRX4204 | activation of LXRβ/RXR heterodimer [4]: not to transactivate; also recorded: does not activate | activation of LXRα/RXR heterodimer [5]: not to transactivate; also recorded: does not activate | pIC50 ([6]; Homo sapiens, HuT78, HuT 78, Cutaneous T-Cell Lymphoma, ATP, 50% of maximal inhibition): 8.80 | Efficacy (Conc.) ([6]; HuT 78, ATP, maximal inhibition at 1 μM): 81% | pIC50 [7, 24]: 7.12 | Efficacy (Conc.) ([7]; maximal inhibition at 1 μM): 97% | pIC50 ([8]; Homo sapiens, SW-403, SW403, Colon, ATP): 9.11 | Efficacy (Conc.) ([8]; SW403, ATP, maximal inhibition at 1 μM): 35% | pIC50 ([9]; Homo sapiens, SK-BR-3, Breast ER-negative, ATP): 8.52 | Efficacy (Conc.) ([9]; SK-BR-3, ATP, maximal inhibition at 1 μM): 74% | pIC50 ([10]; Homo sapiens, ME-180, Cervical, ATP): 8.15 | Efficacy (Conc.) ([10]; ME-180, ATP, maximal inhibition at 1 μM): 80% | pIC50 ([11]; Homo sapiens, Cervical): 7.33 | Efficacy (Conc.) ([11]; maximal inhibition at 1 μM): 41% | Efficacy (Conc.) ([12]; HT-3, ATP, maximal inhibition at 1 μM): 68% | pIC50 ([12]; Homo sapiens, HT-3, Cervical, ATP): > 6.00 | pIC50 ([13]; Homo sapiens, U-937, U937, Leukemia, ATP): 9.14 | Efficacy (Conc.) ([13]; U937, ATP, maximal inhibition at 1 μM): 94% | pIC50 ([14]; Homo sapiens, MCF7, MCF-7, Breast ER-positive, ATP): 7.28 | Efficacy (Conc.) ([14]; MCF-7, ATP, maximal inhibition at 1 μM): 52% | Efficacy (Conc.) ([15]; A-427, ATP, maximal inhibition at 10 μM): 50% | pIC50 ([15]; Homo sapiens, A-427, Non-Small Cell Lung Cancer, ATP): 8.11 | Efficacy (% of 1 μM IRX4204) RXRα [16]: 100 % of 1 μM IRX4204 | Efficacy (Conc.) ([17]; HL-60, thymidine incorporation, maximal inhibition at 1 μM): 94% | pIC50 ([17]; Homo sapiens, HL-60, Leukemia, [H3] Thymidine Incorporation): 7.82 | Efficacy (Conc.) ([18]; H-82, thymidine incorporation, maximal inhibition at 1 μM): 72% | pIC50 ([18]; Homo sapiens, NCI-H82, H-82, Small Cell Lung Cancer, [H3] Thymidine Incorporation): 8.44 | activation of Nurr1/RXR permissive heterodimer [19]: selectively activates | Efficacy (% of 1 μM IRX4204) RXRγ [20]: 0.09 ± 0.01 100 % of 1 μM IRX4204 | pIC50 [21, 24]: 7.90 | Efficacy (Conc.) ([21]; maximal inhibition at 10 μM): 97% | Efficacy (Conc.) ([22]; H446, Soft-Agar, maximal inhibition at 1 μM): 44% | pIC50 ([22]; Homo sapiens, NCI-H446, H446, Small Cell Lung Cancer, Soft-Agar): 7.77

C=C(c1ccc(C(=O)O)cc1)c1cc2c(cc1C)C(C)(C)CCC2(C)C [bexarotene, 4-[1-(3,5,5,8,8-pentamethyl-6,7-dihydronaphthalen-2-yl)ethenyl]benzoic acid]
Cmax ([23]; dose of 400 mg/m^2/d, read-out: Cmax in the blood (estimated)): ~8 µM | Cmax ([23]; lower dose 225 mg/m^2/d, read-out: Cmax (estimated)): ~2 µM
